The values below are quoted from earlier work in patent publication US12648940B2, “Bupivacaine liquid formulations” (FRESENIUS KABI AUSTRIA GMBH, priority 2023, dated 2026).

`CCCCN1CCCCC1C(=O)Nc1c(C)cccc1C` (centres unmarked) [Bupivacaine, 1-butyl-N-(2,6-dimethylphenyl)piperidine-2-carboxamide]: the pKa result is “approximately 8.1”. Further, the “pKa of the amine of the piperidine group” value (at 25° C.) is roughly 8.1.
